Patent US11969490B2, “Hair conditioning composition with antimicrobial system” (The Procter & Gamble Company, priority 2020, dated 2024)

Assay: Rheology Test Method (shear stress at 950 s^−1 via flow curve)
Assay type: physicochemical
Protocol: 2. Rheology Test Method Rheology is used to evaluate and characterise product samples. The two key rheology methods identified are mentioned below: • Shear Stress at 950 s^−1 via flow curve: This is the method to ramp up shear rate logarithmically from 0.1 to 1000 s^−1 in 1 min using a cone & plate geometry, and to read the shear stress value 6 (Pa) at shear rate 950 s^−1. • Delta in Rheology %: This is the percentage difference in rheology measurement following the formula below: Delta in Rheology %=((a−b)/b)×100% • where a is the post added product and b is the no post added product. If rheology reduction is more than 50%, it would indicate significant interaction with chassis and incompatible.

For Pentylene Glycol, which “rheology reduction / compatibility with formulation, in words” value (shortened to “rheology reduction / compatibility”) is on record?
Its value is “no significant rheology reduction”.

With `CCCCCCCC(=O)OCC(O)CO` (stereo not shown) [Glyceryl caprylate] as the compound, how does the “rheology reduction / compatibility” value read?
The value was “no significant rheology reduction”.

Which “rheology reduction / compatibility” value does the source give for `CC(=O)c1ccc(O)cc1` [4-Hydroxyacetophenone] here?
Its value is “no significant rheology reduction”.

With `O=C([O-])c1ccccc1.[Na+]` [Sodium benzoate, reference compound] as the compound, how does the “rheology reduction / compatibility” value read?
Its value is “significant rheology reduction”.
